Test results reported in paper PMC7475166 (Journal of medicinal chemistry, 2015).

Columns and labels:
[1] = target: Bcr-Abl^T315I in Ba/F3 cells (Homo sapiens, UniProt P00519+P11274, T315I); conditions: 500 nM, 3 h, immunoblot
[2] = target: Bcr-Abl^WT in Ba/F3 cells (Homo sapiens, UniProt P00519+P11274); conditions: 500 nM, 3 h, immunoblot
[3] = tested on: diverse set of 66 kinases; assay: SelectScreen Kinase Profiling, whole panel; assay type: biochemical; conditions: 50 nM
[4] = tested on: parental Ba/F3 cells that do not express Bcr-Abl; assay: Counterscreen against parental Ba/F3 cells; assay type: cell-based
TrkA = TrkA (Homo sapiens, UniProt P04629); assay: SelectScreen Kinase Profiling; assay type: biochemical
MUSK = target: T1, MUSK (Homo sapiens, UniProt O15146); assay: SelectScreen Kinase Profiling; assay type: biochemical
T1 sequence (O15146 24-869): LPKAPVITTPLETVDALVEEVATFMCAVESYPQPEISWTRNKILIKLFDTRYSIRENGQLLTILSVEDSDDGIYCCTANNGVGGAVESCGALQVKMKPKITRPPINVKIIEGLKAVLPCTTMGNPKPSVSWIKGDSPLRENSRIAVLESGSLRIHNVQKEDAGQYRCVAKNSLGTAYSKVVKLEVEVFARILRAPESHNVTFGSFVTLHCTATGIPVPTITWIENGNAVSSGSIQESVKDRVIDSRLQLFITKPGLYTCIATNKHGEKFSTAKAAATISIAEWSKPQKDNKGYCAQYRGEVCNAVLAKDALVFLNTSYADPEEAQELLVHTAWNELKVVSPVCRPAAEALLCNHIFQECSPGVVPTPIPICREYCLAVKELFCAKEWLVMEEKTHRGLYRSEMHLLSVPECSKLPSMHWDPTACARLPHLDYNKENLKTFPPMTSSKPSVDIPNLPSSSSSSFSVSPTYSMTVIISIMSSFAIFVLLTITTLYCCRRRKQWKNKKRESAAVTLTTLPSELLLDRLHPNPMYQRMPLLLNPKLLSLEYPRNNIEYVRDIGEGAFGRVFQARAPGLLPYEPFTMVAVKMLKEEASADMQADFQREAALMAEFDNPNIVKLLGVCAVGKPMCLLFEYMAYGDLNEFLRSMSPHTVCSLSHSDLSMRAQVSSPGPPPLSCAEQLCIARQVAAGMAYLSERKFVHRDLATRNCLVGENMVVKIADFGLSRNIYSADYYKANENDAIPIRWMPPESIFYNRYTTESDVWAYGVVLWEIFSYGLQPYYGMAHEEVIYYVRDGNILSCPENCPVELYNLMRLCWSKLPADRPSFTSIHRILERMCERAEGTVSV

Blk = Blk (Homo sapiens, UniProt P51451); assay: SelectScreen Kinase Profiling; assay type: biochemical
Yes1 = Yes1 (Homo sapiens, UniProt P07947); assay: SelectScreen Kinase Profiling; assay type: biochemical; conditions: read-out: inhibition of Yes1
CSF1R = CSF1R (Homo sapiens, UniProt P07333); assay: SelectScreen Kinase Profiling; assay type: biochemical; conditions: read-out: inhibition of CSF1R
Chain of CSF1R (P07333 20-972): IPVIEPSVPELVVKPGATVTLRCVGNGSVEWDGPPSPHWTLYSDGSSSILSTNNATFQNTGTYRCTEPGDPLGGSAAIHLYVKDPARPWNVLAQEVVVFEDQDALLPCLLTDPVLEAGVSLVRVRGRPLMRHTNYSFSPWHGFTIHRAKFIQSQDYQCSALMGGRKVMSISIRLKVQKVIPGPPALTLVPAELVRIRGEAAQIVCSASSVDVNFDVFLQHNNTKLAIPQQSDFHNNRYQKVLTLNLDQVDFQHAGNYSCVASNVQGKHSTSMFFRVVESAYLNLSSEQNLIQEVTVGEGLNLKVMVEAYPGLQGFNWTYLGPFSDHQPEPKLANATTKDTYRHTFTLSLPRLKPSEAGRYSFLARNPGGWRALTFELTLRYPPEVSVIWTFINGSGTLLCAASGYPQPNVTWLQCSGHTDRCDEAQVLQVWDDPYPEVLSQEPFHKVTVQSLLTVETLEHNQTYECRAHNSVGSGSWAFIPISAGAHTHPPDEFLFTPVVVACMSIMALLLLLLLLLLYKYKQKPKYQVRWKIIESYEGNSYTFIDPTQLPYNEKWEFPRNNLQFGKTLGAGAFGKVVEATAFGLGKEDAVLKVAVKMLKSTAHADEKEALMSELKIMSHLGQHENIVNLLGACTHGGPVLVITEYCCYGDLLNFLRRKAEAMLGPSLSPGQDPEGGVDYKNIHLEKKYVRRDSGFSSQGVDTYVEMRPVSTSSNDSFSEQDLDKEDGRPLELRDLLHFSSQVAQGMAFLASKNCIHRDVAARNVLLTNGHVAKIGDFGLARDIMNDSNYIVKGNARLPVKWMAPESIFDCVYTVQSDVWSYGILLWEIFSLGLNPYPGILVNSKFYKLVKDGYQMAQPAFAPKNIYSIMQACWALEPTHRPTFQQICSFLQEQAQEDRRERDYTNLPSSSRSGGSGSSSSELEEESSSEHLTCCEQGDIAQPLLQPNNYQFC

Chain of TrkA (P04629 33-796): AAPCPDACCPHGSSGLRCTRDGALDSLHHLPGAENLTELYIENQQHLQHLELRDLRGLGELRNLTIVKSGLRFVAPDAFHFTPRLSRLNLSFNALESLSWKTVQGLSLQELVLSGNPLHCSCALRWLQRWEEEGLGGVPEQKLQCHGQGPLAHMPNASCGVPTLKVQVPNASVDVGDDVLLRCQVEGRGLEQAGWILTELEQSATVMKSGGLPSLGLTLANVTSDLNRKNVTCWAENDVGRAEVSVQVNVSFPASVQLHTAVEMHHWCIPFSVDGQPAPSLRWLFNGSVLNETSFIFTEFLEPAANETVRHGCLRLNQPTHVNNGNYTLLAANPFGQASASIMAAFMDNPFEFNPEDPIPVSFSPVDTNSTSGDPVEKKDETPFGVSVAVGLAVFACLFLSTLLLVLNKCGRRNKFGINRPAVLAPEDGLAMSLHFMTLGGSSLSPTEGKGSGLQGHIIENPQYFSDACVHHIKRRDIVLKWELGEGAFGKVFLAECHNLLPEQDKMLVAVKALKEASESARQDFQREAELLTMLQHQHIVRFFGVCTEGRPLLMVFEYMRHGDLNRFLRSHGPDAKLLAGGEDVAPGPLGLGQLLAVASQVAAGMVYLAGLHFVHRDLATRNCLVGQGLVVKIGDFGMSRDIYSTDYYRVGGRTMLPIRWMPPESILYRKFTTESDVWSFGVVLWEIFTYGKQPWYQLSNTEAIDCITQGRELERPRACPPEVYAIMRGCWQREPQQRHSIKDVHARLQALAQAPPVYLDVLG
Chain of Yes1 (P07947 whole entry): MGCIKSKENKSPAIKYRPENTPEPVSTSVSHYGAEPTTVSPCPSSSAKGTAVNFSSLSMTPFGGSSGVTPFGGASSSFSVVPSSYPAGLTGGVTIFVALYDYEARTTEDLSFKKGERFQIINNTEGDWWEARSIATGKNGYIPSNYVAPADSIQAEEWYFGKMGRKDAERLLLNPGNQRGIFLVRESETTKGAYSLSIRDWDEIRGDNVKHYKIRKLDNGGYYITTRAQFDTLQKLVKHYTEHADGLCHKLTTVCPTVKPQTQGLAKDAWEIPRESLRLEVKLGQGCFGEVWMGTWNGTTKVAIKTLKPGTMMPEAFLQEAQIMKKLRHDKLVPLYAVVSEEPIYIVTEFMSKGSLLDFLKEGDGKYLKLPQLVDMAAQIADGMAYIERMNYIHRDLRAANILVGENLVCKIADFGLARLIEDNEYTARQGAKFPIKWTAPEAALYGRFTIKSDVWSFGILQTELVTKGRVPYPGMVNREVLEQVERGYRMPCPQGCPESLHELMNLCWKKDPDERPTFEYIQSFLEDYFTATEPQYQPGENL
Chain of Blk (P51451 whole entry): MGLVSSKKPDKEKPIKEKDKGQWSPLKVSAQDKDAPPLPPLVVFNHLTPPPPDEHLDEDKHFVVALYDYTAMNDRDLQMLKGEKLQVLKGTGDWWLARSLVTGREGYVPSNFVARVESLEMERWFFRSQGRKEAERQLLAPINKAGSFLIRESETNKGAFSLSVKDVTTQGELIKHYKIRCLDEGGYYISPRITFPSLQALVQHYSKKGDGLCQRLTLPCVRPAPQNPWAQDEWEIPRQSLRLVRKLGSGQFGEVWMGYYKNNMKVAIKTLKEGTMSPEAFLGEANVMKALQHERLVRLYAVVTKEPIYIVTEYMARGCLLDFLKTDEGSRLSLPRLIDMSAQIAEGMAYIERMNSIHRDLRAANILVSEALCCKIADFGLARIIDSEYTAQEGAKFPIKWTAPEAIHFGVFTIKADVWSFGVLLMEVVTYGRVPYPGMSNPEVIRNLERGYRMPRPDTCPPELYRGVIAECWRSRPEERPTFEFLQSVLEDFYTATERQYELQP

phosphorylation of Abl (Tyr412) and STAT5 (Tyr694) [1]	phosphorylation of Abl (Tyr412) and STAT5 (Tyr694) [2]	number of kinases potently inhibited (>80% inhibition) [3]	inhibition of TrkA (TrkA; 50 nM)	inhibition of MUSK (MUSK; 50 nM)	inhibition of Blk (Blk; 50 nM)	SMILES	window between IC50 values against parental Ba/F3 cells and those expressing Bcr-Abl [4]	inhibition of proliferation of parental Ba/F3 cells ([4]; at concentrations below 1 μM)	inhibition at 0.05 µM (Yes1) [%]	inhibition at 0.05 µM (CSF1R) [%]	inhibition at 0.05 µM (TrkA; read-out: inhibition of TrkA) [%]	inhibition at 0.05 µM (MUSK; read-out: inhibition of MUSK) [%]	inhibition at 0.05 µM (Blk; read-out: inhibition of Blk) [%]
only partially inhibited	only partially inhibited	–	–	–	–	CC(C)n1nc(C#Cc2cccc(O)c2)c2c(N)ncnc21 [Compound 3, 3-((4-Amino-1-isopropyl-1H-pyrazolo[3,4-d]pyrimidin-3-yl)-ethynyl)phenol]	–	–	–	–	–	–	–
abolished	abolished	9	not significantly affected	not significantly affected	not significantly affected	CC(C)n1nc(C#Cc2cccc(NC(=O)c3cccc(C(F)(F)F)c3)c2)c2c(N)ncnc21 [Compound 15, N-(3-((4-Amino-1-isopropyl-1H-pyrazolo[3,4-d]pyrimidin-3-yl)-ethynyl)phenyl)-3-(trifluoromethyl)benzamide]	over 100 fold	do not inhibit	40 to 80	40 to 80	–	–	–
–	–	–	–	–	–	Cc1ccc(C(=O)Nc2ccc(CN3CCN(C)CC3)c(C(F)(F)F)c2)cc1C#Cc1cnc2cccnn12 [Ponatinib, reference compound]	–	–	> 80	> 80	> 80	> 80	> 80
